These results are taken from patent publication US20250231185A1, “Coronavirus T Cell Epitopes, Megapools and Uses Thereof” (La Jolla Institute for Immunology, priority 2021, published 2025).

For one assay, the system named is CD8+ T cells. In words: Meta-analysis of published SARS-CoV-2 CD8 T cell epitope data curated in the IEDB (25 studies). In kind it is cell-based, human. The following applies: CD8-restricted SARS-CoV-2 epitopes; Yes = recognized by 3 or more donors/different studies.
For 1104 (MDLFMRIFTI) [compound 1104], the Dominant result is recorded as “Yes (more dominant epitopes are defined by being recognized by 3 or more donors/different studies)”.

As to 1105 (RIFTIGTVTLK) [compound 1105], the Dominant entry is given as “Yes (more dominant epitopes are defined by being recognized by 3 or more donors/different studies)”.

1107 (FVRATATIPI) [compound 1107]: the Dominant entry is listed as “Yes (more dominant epitopes are defined by being recognized by 3 or more donors/different studies)”.

As for 1109 (IPIQASLPF) [compound 1109], the Dominant result is “Yes (more dominant epitopes are defined by being recognized by 3 or more donors/different studies)”.

In the case of 1111 (IVGVALLAVF) [compound 1111], the Dominant entry is “Yes (more dominant epitopes are defined by being recognized by 3 or more donors/different studies)”.

As to 1117 (ITLKKRWQLAL) [compound 1117], the Dominant result is reported as “Yes (more dominant epitopes are defined by being recognized by 3 or more donors/different studies)”.

1119 (ALSKGVHFV) [compound 1119]: the Dominant entry is listed as “Yes (more dominant epitopes are defined by being recognized by 3 or more donors/different studies)”.

Regarding 1132 (YLYALVYFL) [compound 1132], the Dominant entry is “Yes (more dominant epitopes are defined by being recognized by 3 or more donors/different studies)”.

For 1133 (VYFLQSINF) [compound 1133], the Dominant result was “Yes (more dominant epitopes are defined by being recognized by 3 or more donors/different studies)”.

For 1140 (LLYDANYFL) [compound 1140], the Dominant result is recorded as “Yes (more dominant epitopes are defined by being recognized by 3 or more donors/different studies)”.

For the substance 1150 (FTSDYYQLY) [compound 1150], the Dominant result is listed as “Yes (more dominant epitopes are defined by being recognized by 3 or more donors/different studies)”.

Staying with this assay, now noted: CD8 epitopes; Yes = recognized by 3 or more donors/different studies.
For the substance 494 (NTNSSPDDQIGYY) [compound 494], the Dominant result is “Yes (more dominant epitopes are defined by being recognized by 3 or more donors/different studies)”.

Consider 497 (YYRRATRRIR) [compound 497], for which the Dominant result is “Yes (more dominant epitopes are defined by being recognized by 3 or more donors/different studies)”.

Turning to 498 (RIRGGDGKMK) [compound 498], the Dominant entry was “Yes (more dominant epitopes are defined by being recognized by 3 or more donors/different studies)”.

With 499 (KMKDLSPRW) [compound 499], the Dominant entry is “Yes (more dominant epitopes are defined by being recognized by 3 or more donors/different studies)”.

The same assay, now with this note: SARS-CoV-2-derived CD8 epitopes; dominant = recognized by 3 or more donors/different studies.
719 (NYMPYFFTL) [compound 719]: the Dominant entry is reported as “Yes (more dominant epitopes are defined by being recognized by 3 or more donors/different studies)”.

Take 723 (ASMPTTIAK) [compound 723]: the Dominant result is listed as “Yes (more dominant epitopes are defined by being recognized by 3 or more donors/different studies)”.

With 737 (SLDTYPSLETI) [compound 737], the Dominant result was “Yes (more dominant epitopes are defined by being recognized by 3 or more donors/different studies)”.

745 (AYILFTRFFYV) [compound 745]: the Dominant result is “Yes (more dominant epitopes are defined by being recognized by 3 or more donors/different studies)”.

For 747 (ILFTRFFYV) [compound 747], the Dominant result is listed as “Yes (more dominant epitopes are defined by being recognized by 3 or more donors/different studies)”.

With 754 (YIFFASFYY) [compound 754], the Dominant result is “Yes (more dominant epitopes are defined by being recognized by 3 or more donors/different studies)”.

As to 772 (QLMCQPILLL) [compound 772], the Dominant result is on record as “Yes (more dominant epitopes are defined by being recognized by 3 or more donors/different studies)”.

Regarding 781 (STFNVPMEK) [compound 781], the Dominant entry is listed as “Yes (more dominant epitopes are defined by being recognized by 3 or more donors/different studies)”.

Regarding 808 (FLPRVFSAV) [compound 808], the Dominant result is listed as “Yes (more dominant epitopes are defined by being recognized by 3 or more donors/different studies)”.

As for 810 (FSAVGNICY) [compound 810], the Dominant result is recorded as “Yes (more dominant epitopes are defined by being recognized by 3 or more donors/different studies)”.

Take 816 (SLRPDTRYVL) [compound 816]: the Dominant entry is recorded as “Yes (more dominant epitopes are defined by being recognized by 3 or more donors/different studies)”.

Regarding 818 (RPDTRYVL) [compound 818], the Dominant result is reported as “Yes (more dominant epitopes are defined by being recognized by 3 or more donors/different studies)”.

Consider 833 (TFYLTNDVSFL) [compound 833], for which the Dominant result was “Yes (more dominant epitopes are defined by being recognized by 3 or more donors/different studies)”.

Turning to 841 (FLLNKEMYL) [compound 841], the Dominant entry was “Yes (more dominant epitopes are defined by being recognized by 3 or more donors/different studies)”.

848 (TSEDMLNPNY) [compound 848]: the Dominant entry is “Yes (more dominant epitopes are defined by being recognized by 3 or more donors/different studies)”.

851 (TPKYKFVRI) [compound 851]: the Dominant result is listed as “Yes (more dominant epitopes are defined by being recognized by 3 or more donors/different studies)”.

Regarding 852 (VRIQPGQTF) [compound 852], the Dominant entry is “Yes (more dominant epitopes are defined by being recognized by 3 or more donors/different studies)”.

In the case of 856 (FLNGSCGSV) [compound 856], the Dominant result is “Yes (more dominant epitopes are defined by being recognized by 3 or more donors/different studies)”.

With 858 (GTDLEGNFY) [compound 858], the Dominant result is “Yes (more dominant epitopes are defined by being recognized by 3 or more donors/different studies)”.

860 (VLAWLYAAV) [compound 860]: the Dominant entry is reported as “Yes (more dominant epitopes are defined by being recognized by 3 or more donors/different studies)”.

As to 861 (FLNRFTTTL) [compound 861], the Dominant result is listed as “Yes (more dominant epitopes are defined by being recognized by 3 or more donors/different studies)”.

In the case of 866 (SAFAMMFVK) [compound 866], the Dominant entry is recorded as “Yes (more dominant epitopes are defined by being recognized by 3 or more donors/different studies)”.

As to 872 (FLLPSLATV) [compound 872], the Dominant result is given as “Yes (more dominant epitopes are defined by being recognized by 3 or more donors/different studies)”.

For 874 (MPASWVMRI) [compound 874], the Dominant result is recorded as “Yes (more dominant epitopes are defined by being recognized by 3 or more donors/different studies)”.

With 877 (KLKDCVMYA) [compound 877], the Dominant entry was “Yes (more dominant epitopes are defined by being recognized by 3 or more donors/different studies)”.

As for 882 (SMWALIISV) [compound 882], the Dominant entry was “Yes (more dominant epitopes are defined by being recognized by 3 or more donors/different studies)”.

883 (NYSGVVTTVMF) [compound 883]: the Dominant result is recorded as “Yes (more dominant epitopes are defined by being recognized by 3 or more donors/different studies)”.

For 887 (TLGVYDYLVST) [compound 887], the Dominant result is reported as “Yes (more dominant epitopes are defined by being recognized by 3 or more donors/different studies)”.

896 (SEFSSLPSY) [compound 896]: the Dominant entry was “Yes (more dominant epitopes are defined by being recognized by 3 or more donors/different studies)”.
